According to patent publication US20190270992A1, “METHODS OF CONTROLLING RED BLOOD CELL PRODUCTION” (WISCONSIN ALUMNI RESEARCH FOUNDATION, priority 2018, published 2019):
“Also recorded” adds a separate entry of the source.

Columns and labels:
G1E-ER-GATA-1 cells = experiment: 5-ALA rescue of heme biosynthesis, qRT-PCR of zinc transporter genes; type: cell-based, murine; settings: 1 mM 5-ALA to bypass ALAS-2 and rescue heme biosynthesis; FIG. 3B
Procedure: Cell culture. G1E-ER-GATA-1 cells were cultured in Iscove's modified Dulbecco's medium (IMDM; Gibco) containing 15% FBS (Gemini), 1% penicillin-streptomycin (Gemini), 2 U/ml erythropoietin (Amgen), 120 nM monothioglycerol (Sigma), and 0.6% conditioned medium from a Kit ligand-producing CHO cell line, and 1 μg/ml puromycin (Gemini). ER-GATA-1 activity was induced by adding 1 μM β-estradiol (Steraloids) to media. To rescue heme synthesis, 1 mM 5-aminolevulinic acid hydrochloride (5-ALA; Sigma) was added to media.
(§1) qRT-PCR. Total RNA was purified from 0.4-2×10^6 cells with TRIzol® (Life Technologies). RNA was treated with DNase I (Life Technologies) for 15 min at room temperature. DNase I was inactivated by EDTA and heating at 65° C. for 10 min. DNase I-treated RNA was incubated with 125 ng of a 5:1 mixture of oligo (dT) primers and random hexamer at 68° C. for 10 min. RNA/primers were incubated with Moloney MLV reverse transcriptase (Life Technologies), 10 mM DTT (Life Technologies), RNAsin® (Promega), and 0.5 mM deoxynucleoside triphosphates at 42° C. for 1 h, and then heat inactivated at 98° C. for 5 min. Real-time PCR reactions were conducted with Power SYBR® Green Master Mix (Applied Biosystems) using ViiA™ 7 Real-Time PCR system (Applied Biosystems). Primer sequences are described in Table 1.

[1] = system: mononuclear cells from G-CSF-mobilized peripheral blood; experiment: Heme quantitation after succinylacetone in human erythroid differentiation culture; type: cell-based; settings: succinylacetone during the last four days of culture; day 20
Procedure: (§2) Primary human mononuclear cells were isolated from G-CSF-mobilized peripheral blood using Histopaque® (Sigma). Cells were maintained in StemSpan™ SFEM medium (Stem Cell Technologies) supplemented with 1×CC100 cytokine mix (Stem Cell Technologies) for 4 days. […]
Heme quantitation. […] Electronic absorption spectra of cleared lysates were recorded on a Varian Cary 4 Bio spectrophotometer, and the oxyhemoglobin concentration of each cleared lysate was calculated using extinction coefficients at 542 nm and 577 nm for human oxyhemoglobin monomers. Total heme in each cleared lysate was determined for two technical replicates using the pyridine hemochrome assay in which 200 μl of a stock solution of 0.1 N NaOH and 33% (v/v) pyridine was combined with 100 μl of the cleared lysate. Upon addition of 2-5 mg of sodium dithionite, electronic absorption spectra were recorded, and total heme concentrations were calculated using known extinction coefficients of the ferrous bis(pyridine) protoheme complex at 525 nm and 556 nm as is known in the art.

[2] = system: mononuclear cells from G-CSF-mobilized peripheral blood; experiment: qRT-PCR of gene expression after succinylacetone in human erythroid differentiation culture; type: cell-based; settings: succinylacetone vs no treatment, day 19 and 20
Procedure: Primary human mononuclear cells were isolated from G-CSF-mobilized peripheral blood using Histopaque® (Sigma). Cells were maintained in StemSpan™ SFEM medium (Stem Cell Technologies) supplemented with 1×CC100 cytokine mix (Stem Cell Technologies) for 4 days. To induce differentiation, cells were cultured in basal differentiation media [IMDM containing 15% FBS, 2 mM L-glutamine, 1% BSA (Sigma), 500 μg/ml holo human transferrin (Sigma), and 10 [μg/ml insulin (Sigma)] supplemented with 1 μM dexamethasone (Sigma), 1 μM β-estradiol (Steraloids), 5 ng/ml IL-3, 100 ng/ml SCF, and 6 U/ml erythropoietin (Amgen) for 5 days, followed by four days in basal differentiation media supplemented with 50 ng/ml SCF and 6 U/ml erythropoietin and then seven days in basal differentiation media containing 2 U/ml erythropoietin.
as §1

[3] = system: mononuclear cells from G-CSF-mobilized peripheral blood; experiment: Cellularity after succinylacetone (flow cytometry, Wright-Giemsa staining); type: cell-based, human; settings: succinylacetone during the last four days of culture
Procedure: as §2
(§3) Flow cytometry. For intracellular zinc quantitation in mouse cells, cells were washed twice with PBS and incubated with 1 l/ml Ghost Dye™ Red 780 (TONBO Biosciences) for 30 min at 4° C. […] Cells were then washed twice with PBS and analyzed. […] Cells were then washed twice with PBS and analyzed. For intracellular zinc quantitation in human cells, cells were washed twice with HBSS and incubated with HBSS containing 1 μM FluoZin™-3 AM, 0.02% Pluronic® F-127, PE-conjugated anti-human CD71 (0.024 μg in 100 μl, eBioscience, 12-0719-42), and APC-conjugated anti-human CD235a (0.006 μg in 100 μl, eBioscience 17-9987-42) for 30 min at room temperature. […] Cells were then washed twice with PBS, stained with DAPI, and analyzed. Samples were analyzed using a BD LSR II (BD Biosciences). […]

[4] = system: lineage-negative fetal liver-derived hematopoietic precursors; experiment: Zinc chelation with TPEN and ZnCl2 add-back, flow cytometry (FluoZin-3, live/dead, CD71, Ter119); type: cell-based, murine
Procedure: (§4) Primary erythroid precursors from E14.5 murine fetal livers were cultured in StemPro®-34 (Gibco) supplemented with 10% nutrient supplement (Gibco), 1×L-glutamine (Cellgro), 1% penicillin-streptomycin (Gemini), 0.1 mM monothioglycerol (Sigma), 1 NM dexamethasone (Sigma), 0.5 U/ml erythropoietin (Amgen), and 1% conditioned medium from a Kit ligand-producing CHO cell line (expansion culture). To chelate zinc, 10 NM N,N,N′,N′-Tetrakis(2-pyridylmethyl)ethylenediamine (TPEN, Sigma, P4413) was added to the media, and 20 NM ZnCl2 (Fisher Scientific) was added back. After two days, cells were differentiated in IMDM (Gibco) containing 10% FBS (Gemini), 10% plasma-derived serum (PDS; Animal Technologies), 5% protein-free hybridoma medium II (PFHM II; Gibco), 1% penicillin-streptomycin (Gemini), 0.1 mM monothioglycerol (Sigma) and 6 U/ml of erythropoietin (Amgen).
Flow cytometry. For intracellular zinc quantitation in mouse cells, cells were washed twice with PBS and incubated with 1 l/ml Ghost Dye™ Red 780 (TONBO Biosciences) for 30 min at 4° C. Cells were washed once with PBS containing 2% FBS and twice with HBSS, and treated with HBSS containing 1 μM FluoZin™-3 AM (Invitrogen), 0.02% Pluronic® F-127 (Invitrogen), BV421-conjugated anti-mouse CD71 (0.2 μg in 100 μl, Biolegend, 113813), and APC-conjugated anti-mouse Ter119 (0.2 μg in 100 μl, Biolegend, 116212) for 30 min at room temperature. Cells were washed once with HBSS and incubated for 15 min at room temperature. Cells were then washed twice with PBS and analyzed. […] Cells were then washed twice with PBS and analyzed. For intracellular zinc quantitation in human cells, cells were washed twice with HBSS and incubated with HBSS containing 1 μM FluoZin™-3 AM, 0.02% Pluronic® F-127, PE-conjugated anti-human CD71 (0.024 μg in 100 μl, eBioscience, 12-0719-42), and APC-conjugated anti-human CD235a (0.006 μg in 100 μl, eBioscience 17-9987-42) for 30 min at room temperature. […] Cells were then washed twice with PBS, stained with DAPI, and analyzed. Samples were analyzed using a BD LSR II (BD Biosciences). […]

Slc39a8 mRNA = experiment: shRNA-mediated knockdown, qRT-PCR of Slc39a8 mRNA; type: cell-based, mouse; settings: Luciferase shRNA as control
Procedure: as §4
(§5) qRT-PCR. Total RNA was purified from 0.4-2×10^6 cells with TRIzol® (Life Technologies). RNA was treated with DNase I (Life Technologies) for 15 min at room temperature. DNase I was inactivated by EDTA and heating at 65° C. for 10 min. DNase I-treated RNA was incubated with 125 ng of a 5:1 mixture of oligo (dT) primers and random hexamer at 68° C. for 10 min. […]

[5] = system: lineage-negative hematopoietic precursors (E14.5); experiment: Intracellular zinc (FluoZin-3 flow cytometry) in shRNA knockdown cells; type: cell-based, murine
Procedure: as §4, with “After two days, cells were differentiated in IMDM (Gibco) containing 10% FBS (Gemini), 10% plasma-derived serum (PDS; Animal Technologies), 5% protein-free hybridoma medium II (PFHM II; Gibco), 1% penicillin-streptomycin (Gemini), 0.1 mM monothioglycerol (Sigma) and 6 U/ml of erythropoietin (Amgen).” left out
as §3

[6] = system: lineage-negative hematopoietic precursors (E14.5); experiment: Erythroid populations (CD71, Ter119, FSC-A flow cytometry) in shRNA knockdown cells; type: cell-based, murine; settings: day 5
Procedure: as §4, with “After two days, cells were differentiated in IMDM (Gibco) containing 10% FBS (Gemini), 10% plasma-derived serum (PDS; Animal Technologies), 5% protein-free hybridoma medium II (PFHM II; Gibco), 1% penicillin-streptomycin (Gemini), 0.1 mM monothioglycerol (Sigma) and 6 U/ml of erythropoietin (Amgen).” left out
as §3

[7] = system: lineage-negative hematopoietic precursors (E14.5); experiment: Thiazole orange (TO) discrimination of nucleated erythroblasts and enucleated progeny in shRNA knockdown cells; type: cell-based, murine; settings: expanded 2 days, differentiated 3 days
Procedure: as §4, with “After two days, cells were differentiated in IMDM (Gibco) containing 10% FBS (Gemini), 10% plasma-derived serum (PDS; Animal Technologies), 5% protein-free hybridoma medium II (PFHM II; Gibco), 1% penicillin-streptomycin (Gemini), 0.1 mM monothioglycerol (Sigma) and 6 U/ml of erythropoietin (Amgen).” left out
as §3

Slc30a1 mRNA = experiment: shRNA-mediated knockdown, qRT-PCR of Slc30a1 mRNA; type: cell-based, mouse; settings: off-target check
Procedure: as §4, §5

Cl.NCC(=O)CCC(=O)O [5-ALA, 5-aminolevulinic acid hydrochloride]
Slc30a1 expression (G1E-ER-GATA-1 cells): increased

CC(=O)CC(=O)CCC(=O)O [Succinylacetone, succinylacetone]
decrease of heme in oxyhemoglobin [1]: 3.4 fold
decrease of total heme [1]: 2.9 fold
ACTB expression [2]: unaffected
HBA1 expression [2]: reduced
HBB expression [2]: reduced
SLC30A1 expression [2]: reduced
cellularity [3]: did not impact

c1ccc(CN(CCN(Cc2ccccn2)Cc2ccccn2)Cc2ccccn2)nc1 [TPEN, N,N,N′,N′-Tetrakis(2-pyridylmethyl)ethylenediamine]
live cell population ([4]; 10 NM TPEN in expansion culture, day 3): considerably decreased
intracellular zinc levels in erythroid precursors of varying maturation stage ([4]; 10 NM TPEN in expansion culture, FluoZin-3 MFI): reduced

[Cl-].[Cl-].[Zn+2] [ZnCl2]
effect of adding ZnCl2 to the media on the actions of TPEN ([4]; 10 NM TPEN, 20 NM ZnCl2 added back): negated the actions of TPEN

TGATAATTGTCACTGACAG (listed as DNA, chemistry not fully specified) [shRNAs targeting Slc39a8, retrovirus-expressed shRNA against mouse zinc importer Slc39a8]
downregulation of Slc39a8 mRNA (Slc39a8 mRNA; day five (expanded two days, differentiated three days)): 71%
downregulation of Slc39a8 mRNA (Slc39a8 mRNA; day two (expanded for two days)): 86%
intracellular zinc in all (more mature) populations ([5]; erythroid differentiation culture, day 5): no effect; also recorded: did not alter
decrease of intracellular zinc in R3 cells ([5]; expansion culture, day 2): 3.3 fold
cellularity [6]: did not impact
cell populations (CD71/TO) [7]: did not influence
Slc30a1 mRNA levels upon Slc39a8 loss (Slc30a1 mRNA): did not impact
